Patent US20120003661A1, “METHODS AND DEVICES FOR THE SELECTIVE DETECTION OF MICROORGANISMS” (C3 JIAN, INC., priority 2010, published 2012)
“Also recorded” adds a separate entry of the source.

System: bacteria, fungi, and/or yeasts
Format: binding
Conditions: microorganism(s) listed as target(s) of the targeting peptide; wrapped target lists given cell by cell

Substance | Target(s)
PF-051 (RFFNFEIKKSTKVDYVFAHVDLSDV) | C. albicans hyphae; also recorded: S. epidermidis, M. luteus, P. aeruginosa,; also recorded: C. albicans, MRSA,; also recorded: S. pneumoniae, E. faecalis
1T-264 (LEGKFYMAEDFDKTPECFKDYV) | S. sanguinis
PF-061 (GYNSYKAVQDVKTHSEEQRVTAKK) | S. epidermidis, S. pneumoniae
PF-137 (VLGKGHDLLDVGKTALKSRVFAWLGGS) | S. epidermidis, P. mirabilis, S. pneumoniae,; also recorded: C. jeikeium, C. jejuni
PF-023 (MTKNTIISLENEKTQINDSENESSDLRKAK) | M. luteus, C. jeikeium
TT-309 (EPLPLTKYDKKDTEMKKVFKEILAGKVGYEKEEE) | F. nucleatum
1T-281 (KYEKLTKENLFIRNSGNMCVFIYFLFFG) | A. naeslundii, F. nucleatum, P. gingivalis,; also recorded: S. epidermidis, S. gordonii,; also recorded: S. mitis, S. mutans, S. oralis,; also recorded: S. salivarious, S. sanguinis
PF-074 (RDIHPIYFMTKD) | S. epidermidis, M. luteus, MRSA
PF-066 (IKGTVKAVDETTVVITVNGHGTELTFEKPAIKQVDPS) | M. luteus, E. coli, C. jeikeium
PF-024 (DLRKAK) | C. albicans hyphae; also recorded: M. luteus, C. albicans, MRSA, E. faecalis,; also recorded: C. jeikeium
PF-027 (HNARKYLEFISQKIDGDKLTKEDSL) | M. luteus, MRSA, E. faecalis, C. jejuni
1T-257 (IILAKAADLAEIERIISEDPFKINEIANYDIIEFCPTKSSKAFEKVLK) | A. naeslundii, F. nucleatum, P. gingivalis,; also recorded: S. epidermidis, S. gordonii,; also recorded: S. mitis, S. mutans, S. oralis,; also recorded: S. salivarious, S. sanguinis
PF-S018 (GMPQIPRLRI) | yeast and hyphal forms
1T-252 (MKKNLKRFYALVLGFIIGCLFVSILIFIGY) | F. nucleatum, S. sanguinis
PF-012 (WRGPNTEAGGKSANNIVQVGGAPT) | S. epidermidis, M. luteus, P. mirabilis,; also recorded: E. coli, P. aeruginosa,; also recorded: MRSA, S. pneumoniae, C. jeikeium,; also recorded: C. jejuni
PF-135 (PPARPARIPQTPTLHGASLFRQRS) | S. epidermidis, M. luteus, E. coli,; also recorded: P. aeruginosa, MRSA, C. jeikeium,; also recorded: M. smegmatis
1T-266 (RAGTWLVVDEIR) | S. sanguinis
PF-155 (GRYGDDSKERQGRAQ) | C. jeikeium
PF-154 (GIKKSKHPSTDDYVVKTTIDSL) | S. mutans
1T-303 (LDYENMDCKKRIRI) | A. naeslundii, F. nucleatum, P. gingivalis,; also recorded: S. gordonii, S. mitis,; also recorded: S. mutans, S. oralis, S. salivarious,; also recorded: S. sanguinis
1T-278 (SINSSAGIQPHCLSSSFVLRTKHCFY) | A. naeslundii, F. nucleatum, P. gingivalis,; also recorded: S. gordonii, S. mitis,; also recorded: S. mutans, S. oralis, S. salivarious,; also recorded: S. sanguinis
PF-054 (VSISRFIGGGHVFNGNNKRNL) | S. epidermidis, E. coli
PF-139 (ALSKPAIQARTLCRRQDPP) | S. epidermidis, M. luteus, P. mirabilis,; also recorded: E. coli, P. aeruginosa,; also recorded: C. albicans, S. pneumoniae, E. faecalis,; also recorded: C. jeikeium, C. jejuni
PF-125 (YVVGALVILAVAGLIYSMLRKA) | S. epidermidis, M. luteus, P. mirabilis,; also recorded: E. coli, P. aeruginosa,; also recorded: C. albicans, MRSA, S. pneumoniae,; also recorded: E. faecalis, C. jejuni
PF-008 (MIEIGSIAYLNGGSKKYNHILNQENR) | S. epidermidis, M. luteus, MRSA,; also recorded: C. jejuni
PF-142 (GIDRGCQAAR) | S. mutans
1T-268 (PITPKKEKCGLGTYAPKNPVFSKSRV) | F. nucleatum, S. mutans, S. oralis,; also recorded: S. sanguinis

Same assay, conditions: microorganism(s) that the targeting peptide binds, as listed in Table 2

Substance | Target(s)
PF-798 (ALHSKGIKVMADWVPDQMYA) | S. mutans
PF-C098 (PETKGKVSAFVFGIVVANVIAVVYILYMLREIGIIQ) | A. naeslundii, F. nucleatum, P. gingivalis,; also recorded: S. mutans, T. denticola
PF-C071 (QVIVKIL) | A. naeslundii, F. nucleatum, S. mutans
PF-W (FIDSFIRSF) | S. mutans
PF-784 (MAMTTVDNIVGLVIAVALMAFLFAALLFPEKF) | Mycobacteria spp.
PF-C034 (HPMPITVRSRKPGPLTAPSEH) | S. mutans, E. coli
PF-788 (GLITVFAGTARILQLRRAAKKTHAAALR) | Mycobacteria spp.
PF-C136 (LILSYQASVYPLFAYLCQQKDY) | A. naeslundii, F. nucleatum, P. gingivalis,; also recorded: S. mutans, T. denticola
PF-S018 (GMPQIPRLRI) | S. epidermidis, M. luteus, C. albicans,; also recorded: MRSA, E. faecalis, C. jeikeium,; also recorded: C. jejuni
PF-C273 (KNMLKRRMKQKRLFDEEDRLRVLSKYTKSYY) | A. naeslundii, P. gingivalis, S. mutans,; also recorded: T. denticola
PF-C064 (DEEALEMGANLYAQFAIDFLNSKK) | A. naeslundii, F. nucleatum, P. gingivalis,; also recorded: S. mutans, T. denticola
PF-C055 (YNLSIYIYFLHTITIAGLITLPFII) | A. naeslundii, F. nucleatum, P. gingivalis,; also recorded: S. mutans
PF-C194 (NTNDLLQAFELMGLGMAGVFIVLGILYIVAELLIKIFPVNN) | A. naeslundii, F. nucleatum, P. gingivalis,; also recorded: S. mutans, T. denticola
PF-C181 (KMRAGQVVFIYKLILVLLFYVLQKLFDLKKGCF) | P. gingivalis
PF-C131 (QWIVAKREIRMHIYCHISVIHVIIFFG) | A. naeslundii, F. nucleatum, P. gingivalis,; also recorded: S. mutans

Same assay, conditions: microorganism(s) the targeting peptide binds, as listed in Table 2

Substance | Target(s)
1T-114 (RQAPGPGLVTITAACSAPGSRSR) | A. naeslundii, P. gingivalis, S. epidermidis,; also recorded: S. gordonii, S. mitis,; also recorded: S. mutans, S. oralis, S. sanguinis
1T-10 (SPAGLPGDGDEA) | M. xanthus
1T-163 (MENILIYIPMVLSPFGSGILLFLGKDRRYML) | A. naeslundii, F. nucleatum, P. gingivalis,; also recorded: S. epidermidis, S. gordonii,; also recorded: S. mitis, S. mutans, S. oralis,; also recorded: S. salivarious, S. sanguinis
1T-31 (NATGTDIGEVTLTLGRFS) | S. mutans, P. aeruginosa
1T-139 (AVAGAAVGALLGNDARSTAVGAAIGGALGAGAGELTKNK) | A. naeslundii, S. gordonii, S. mitis,; also recorded: S. mutans, S. oralis
1T-199 (RAGRIKKLSQKEAEPFEN) | S. sanguinis
1T-4 (LDAYGELVGGN) | L. casei; also recorded: S. mutans, S. gordonii, S. sanguinis,; also recorded: S. oralis, V. atypica,
1T-168 (ELHRIMSTEKIGAVTKMNFDTAPIMSILPIDIYPKEVGIGS) | A. naeslundii, F. nucleatum, P. gingivalis,; also recorded: S. epidermidis, S. gordonii,; also recorded: S. mitis, S. mutans, S. oralis,; also recorded: S. salivarious, S. sanguinis
1T-80 (GGNLGPGFGVIIP) | S. pneumoniae
1T-134 (SRLVREIKKKCRKS) | A. naeslundii, F. nucleatum, P. gingivalis,; also recorded: S. epidermidis, S. gordonii,; also recorded: S. mitis, S. mutans, S. oralis,; also recorded: S. salivarious, S. sanguinis
1T-41 (KRGSKIVIAIAVVLIVLAGVWVW) | S. mutans, S. aureus, S. epidermidis,; also recorded: C. jeikeium, C. striatum,; also recorded: P. aeruginosa
1T-226 (KLQEKQIDRNFERVSGYSTYRAVQAAKAKEKGFISLEN) | A. naeslundii, F. nucleatum, S. epidermidis,; also recorded: S. gordonii, S. mitis,; also recorded: S. mutans, S. oralis, S. salivarious,; also recorded: S. sanguinis
1T-86 (HRKNPVLGVGRRHRAHNVA) | S. mitis, S. oralis, S. salivarious
1T-172 (FEGLKNLLGDDII) | A. naeslundii, F. nucleatum, P. gingivalis,; also recorded: S. epidermidis, S. gordonii,; also recorded: S. mitis, S. mutans, S. oralis,; also recorded: S. salivarious, S. sanguinis
1T-122 (GAIPDPVTHRVDWEEDHQTRPSR) | S. mitis
1T-48 (KLQVHHGRATHTLLLQPPLCAPGTIR) | S. aureus, S. epidermidis, C. jeikeium,; also recorded: C. xerosis, C. striatum,; also recorded: P. aeruginosa

Substance | Target(s)
1T-24 (EEAEEKLAEVSQAVKRLVR) | P. aeruginosa
1T-62 (GCKGCAQRDPCAEPEPYFRLR) | S. epidermidis, P. aeruginosa
1T-133 (YFIKDDNEALSKDWEVIGNDLKGTIDKYGKEFKVR) | A. naeslundii, P. gingivalis, S. epidermidis,; also recorded: S. gordonii, S. mitis,; also recorded: S. mutans, S. oralis, S. salivarious,; also recorded: S. sanguinis
1T-218 (KLIFAALGLVFLLIGLRDSRSK) | F. nucleatum, S. sanguinis
1T-73 (GWWEELLHETILSKFKITKALELPIQL) | S. pneumoniae
1T-26 (LTILPTTFFAIIVPILAVAFIAYSGFKIKGIVEHKDQW) | S. mutans, S. aureus, S. epidermidis,; also recorded: C. jeikeium, C. xerosis,; also recorded: C. striatum, P. aeruginosa
1T-85 (VMASLTWRMRAASASLPTHSRTDA) | A. naeslundii, F. nucleatum, P. gingivalis,; also recorded: S. epidermidis, S. gordonii,; also recorded: S. mitis, S. mutans, S. oralis,; also recorded: S. salivarious, S. sanguinis
1T-155 (LKLAFGVYPFQAMSQSDTAVSERNVLWR) | A. naeslundii, F. nucleatum, P. gingivalis,; also recorded: S. epidermidis, S. gordonii,; also recorded: S. mitis, S. mutans, S. oralis,; also recorded: S. salivarious, S. sanguinis
1T-42 (TVLDWLSLALATGLFVYLLVALLRADRA) | S. aureus, S. epidermidis, C. xerosis,; also recorded: C. striatum, P. aeruginosa
1T-83 (QKPRKNETFIGYIQRYDIDGNGYQSLPCPQN) | S. pneumoniae
1T-100 (LDPLEPRIAPPGDRSHQGAPACHRDPLRGRSARDAER) | S. gordonii, S. mitis, S. mutans
1T-75 (GVARGLQLGIKTRTQWGAATGAA) | S. pneumoniae
1T-177 (GTNVPTQILGYSREERFDYEPAPEQR) | P. gingivalis, S. gordonii, S. mitis,; also recorded: S. mutans, S. oralis, S. salivarious,; also recorded: S. sanguinis
1T-193 (LMIFDKHANLKYKYGNRSFGVEAIM) | S. sanguinis
1T-115 (LLIERFSNHH) | A. naeslundii, F. nucleatum, P. gingivalis,; also recorded: S. epidermidis, S. gordonii,; also recorded: S. mitis, S. mutans, S. oralis,; also recorded: S. salivarious, S. sanguinis
1T-92 (GQDEGQRRAGVGEGQGVDG) | S. mitis, S. mutans
